The values that follow come from ChEMBL document CHEMBL4007472, “Identification of novel TACE inhibitors compatible with topical application” (Bioorg Med Chem Lett, 2017).

Converted amounts (≈) assume the structure as drawn.

For one data set, the target named is T1, Interstitial collagenase (Homo sapiens, UniProt P03956).
T1 sequence (P03956 whole entry): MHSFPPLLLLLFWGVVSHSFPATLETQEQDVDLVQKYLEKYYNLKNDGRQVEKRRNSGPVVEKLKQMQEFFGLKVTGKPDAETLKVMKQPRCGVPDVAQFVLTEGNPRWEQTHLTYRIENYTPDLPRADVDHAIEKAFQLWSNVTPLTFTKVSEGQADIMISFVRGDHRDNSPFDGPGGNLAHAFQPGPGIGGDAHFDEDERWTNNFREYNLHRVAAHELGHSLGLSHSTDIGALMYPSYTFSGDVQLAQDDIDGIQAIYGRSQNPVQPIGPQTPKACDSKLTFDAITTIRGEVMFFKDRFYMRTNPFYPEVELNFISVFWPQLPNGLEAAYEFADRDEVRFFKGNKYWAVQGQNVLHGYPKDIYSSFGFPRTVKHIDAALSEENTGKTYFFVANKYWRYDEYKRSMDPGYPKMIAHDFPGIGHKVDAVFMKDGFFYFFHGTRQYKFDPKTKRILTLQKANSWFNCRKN
Put plainly: Inhibition of recombinant human MMP1 catalytic domain using Mca-Pro-Leu-Gly-Leu-Dpa-Ala-Arg-NH2 as substrate after 10 mins by fluorescence assay.

For data set [1], the target named is T2, Disintegrin and metalloproteinase domain-containing protein 10 (Homo sapiens, UniProt O14672).
T2 sequence (O14672 whole entry): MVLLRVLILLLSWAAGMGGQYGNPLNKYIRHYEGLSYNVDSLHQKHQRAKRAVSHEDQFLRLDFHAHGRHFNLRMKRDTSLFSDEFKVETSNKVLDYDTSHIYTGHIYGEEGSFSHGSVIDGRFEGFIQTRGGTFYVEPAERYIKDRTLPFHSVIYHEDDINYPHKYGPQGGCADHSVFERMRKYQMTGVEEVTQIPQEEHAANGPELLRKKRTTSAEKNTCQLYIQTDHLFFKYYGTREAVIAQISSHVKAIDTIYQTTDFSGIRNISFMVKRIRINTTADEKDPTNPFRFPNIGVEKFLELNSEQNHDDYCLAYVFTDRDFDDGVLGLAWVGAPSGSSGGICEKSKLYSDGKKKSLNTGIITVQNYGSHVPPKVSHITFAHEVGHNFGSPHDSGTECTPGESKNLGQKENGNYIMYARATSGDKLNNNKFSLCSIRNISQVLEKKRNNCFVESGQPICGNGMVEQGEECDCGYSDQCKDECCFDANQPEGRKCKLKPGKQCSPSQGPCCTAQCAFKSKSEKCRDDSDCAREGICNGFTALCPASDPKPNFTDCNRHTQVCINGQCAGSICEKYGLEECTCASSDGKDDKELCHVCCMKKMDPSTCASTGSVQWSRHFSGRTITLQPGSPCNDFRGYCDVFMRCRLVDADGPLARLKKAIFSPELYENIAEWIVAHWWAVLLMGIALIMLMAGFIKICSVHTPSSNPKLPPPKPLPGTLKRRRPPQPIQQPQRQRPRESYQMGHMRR
Put plainly: Inhibition of ADAM10 (unknown origin).

Data set [2] addresses T3, Disintegrin and metalloproteinase domain-containing protein 17 (Homo sapiens, UniProt P78536). Put plainly: Inhibition of TACE in NHEK assessed as reduction in LPS/TPA-stimulated TNFalpha production preincubated for 1 hr followed by LPS/TPA stimulation for 24 hrs by HTRF assay. For orientation: In TR-FRET formats the signal depends on donor and acceptor labels being close together.

A short description of data set [3]: Aqueous solubility of the compound. The format is physicochemical.
Data set [4] is described as follows: Intrinsic clearance in human hepatocytes assessed per million cells at 1 uM up to 90 mins by LC-MS/MS analysis. The data set is classed as ADME, cell-based, Hepatocyte. The following applies: read-out: CLH.
In data set [5] the target is Macrophage metalloelastase (Homo sapiens, UniProt P39900). Put plainly: Inhibition of MMP12 (unknown origin).
Data set [6] in a line: Fraction unbound in human plasma at 5 uM after 4 hrs by LC-MS/MS based equilibrium dialysis method. The data set is classed as ADME, cell-free. A general note: In equilibrium dialysis only unbound substance equilibrates across the membrane.
The target in data set [7] is Matrix metalloproteinase-9 (Homo sapiens, UniProt P14780). Put plainly: Inhibition of MMP9 (unknown origin).
The target in another data set is Stromelysin-1 (Homo sapiens, UniProt P08254). Put plainly: Inhibition of MMP3 (unknown origin).
Data set [8] is described as follows: Photoirritancy factor, ratio of EC50 for human neonatal keratinocytes under dark condition to EC50 for human neonatal keratinocytes under 5 J/cm2 UV light exposure. On the set-up: species or system Neonatal keratinocyte.
The target of data set [9] is T3, Disintegrin and metalloproteinase domain-containing protein 17. Put plainly: Inhibition of recombinant human TACE catalytic domain using Mca-Pro-Leu-Ala-Gln-Ala-Val-Dpa-Arg-Ser-Ser-Ser-Arg-NH2 as substrate after 2 hrs by fluorescence assay.
Data set [10] can be described thus: Half life in human keratinocytes at 1 uM by LC-MS/MS analysis. The format is ADME, cell-based, Keratinocyte.
Data set [11] can be described thus: Stability in human liver microsomes assessed as parent compound remaining at 1 uM after 15 mins by LC-MS/MS analysis. The note with it: read-out: Stability. The data set is classed as ADME, microsome. For orientation: Liver microsomes are a subcellular fraction often used to study metabolism.
Data set [12] deals with T4, Disintegrin and metalloproteinase domain-containing protein 9 (Homo sapiens, UniProt Q13443).
T4 sequence (Q13443 whole entry): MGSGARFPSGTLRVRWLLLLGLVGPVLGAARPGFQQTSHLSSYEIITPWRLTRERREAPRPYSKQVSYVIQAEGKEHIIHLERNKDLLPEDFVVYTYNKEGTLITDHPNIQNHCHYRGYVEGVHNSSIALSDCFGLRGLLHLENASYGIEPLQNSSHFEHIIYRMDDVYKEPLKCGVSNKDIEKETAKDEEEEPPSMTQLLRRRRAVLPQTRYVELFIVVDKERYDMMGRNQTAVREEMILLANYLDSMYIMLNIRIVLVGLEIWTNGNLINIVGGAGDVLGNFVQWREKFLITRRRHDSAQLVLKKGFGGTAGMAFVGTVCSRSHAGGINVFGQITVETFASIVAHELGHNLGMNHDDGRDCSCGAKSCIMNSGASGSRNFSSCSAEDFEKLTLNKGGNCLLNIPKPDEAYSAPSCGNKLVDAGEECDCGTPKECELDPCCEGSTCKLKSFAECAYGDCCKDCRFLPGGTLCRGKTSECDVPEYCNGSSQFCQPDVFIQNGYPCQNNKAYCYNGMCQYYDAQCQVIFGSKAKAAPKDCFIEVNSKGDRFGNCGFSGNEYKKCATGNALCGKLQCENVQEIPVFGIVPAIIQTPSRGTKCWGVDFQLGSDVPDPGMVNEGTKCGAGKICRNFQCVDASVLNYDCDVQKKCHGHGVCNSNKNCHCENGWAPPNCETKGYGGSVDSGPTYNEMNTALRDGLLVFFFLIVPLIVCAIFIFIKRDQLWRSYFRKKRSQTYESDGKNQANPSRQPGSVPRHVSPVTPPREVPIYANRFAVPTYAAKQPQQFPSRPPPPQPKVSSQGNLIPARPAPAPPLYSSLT
Put plainly: Inhibition of ADAM9 (unknown origin).

Data set [13] is described as follows: Solubility of the compound in PG/EtOH96. The format is physicochemical.
The target in data set [14] is T3, Disintegrin and metalloproteinase domain-containing protein 17. Put plainly: Inhibition of TACE in human PBMC assessed as inhibition of TNFalpha production.

T3 sequence (P78536 whole entry, the tested form may be a part): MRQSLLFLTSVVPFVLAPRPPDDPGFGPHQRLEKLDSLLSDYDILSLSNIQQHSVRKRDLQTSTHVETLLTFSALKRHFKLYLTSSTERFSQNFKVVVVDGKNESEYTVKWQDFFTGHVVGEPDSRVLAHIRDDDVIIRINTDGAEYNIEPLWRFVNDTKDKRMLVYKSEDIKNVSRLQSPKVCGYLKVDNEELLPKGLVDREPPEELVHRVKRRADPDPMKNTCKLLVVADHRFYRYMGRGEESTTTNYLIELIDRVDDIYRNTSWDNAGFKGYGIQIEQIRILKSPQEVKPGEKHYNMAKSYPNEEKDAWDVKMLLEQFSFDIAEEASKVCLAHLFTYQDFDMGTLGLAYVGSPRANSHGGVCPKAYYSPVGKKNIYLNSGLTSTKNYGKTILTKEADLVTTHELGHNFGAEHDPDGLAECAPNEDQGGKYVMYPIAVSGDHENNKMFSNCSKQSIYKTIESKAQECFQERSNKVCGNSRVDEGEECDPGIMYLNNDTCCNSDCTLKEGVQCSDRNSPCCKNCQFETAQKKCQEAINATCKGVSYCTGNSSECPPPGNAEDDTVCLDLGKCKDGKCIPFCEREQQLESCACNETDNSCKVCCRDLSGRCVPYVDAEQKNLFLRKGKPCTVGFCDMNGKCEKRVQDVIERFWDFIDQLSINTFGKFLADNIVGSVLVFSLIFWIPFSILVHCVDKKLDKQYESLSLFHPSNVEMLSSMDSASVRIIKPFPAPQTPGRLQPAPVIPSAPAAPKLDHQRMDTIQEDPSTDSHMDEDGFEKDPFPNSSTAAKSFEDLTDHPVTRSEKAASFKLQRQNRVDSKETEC
Sequence of Matrix metalloproteinase-9 (P14780 whole entry): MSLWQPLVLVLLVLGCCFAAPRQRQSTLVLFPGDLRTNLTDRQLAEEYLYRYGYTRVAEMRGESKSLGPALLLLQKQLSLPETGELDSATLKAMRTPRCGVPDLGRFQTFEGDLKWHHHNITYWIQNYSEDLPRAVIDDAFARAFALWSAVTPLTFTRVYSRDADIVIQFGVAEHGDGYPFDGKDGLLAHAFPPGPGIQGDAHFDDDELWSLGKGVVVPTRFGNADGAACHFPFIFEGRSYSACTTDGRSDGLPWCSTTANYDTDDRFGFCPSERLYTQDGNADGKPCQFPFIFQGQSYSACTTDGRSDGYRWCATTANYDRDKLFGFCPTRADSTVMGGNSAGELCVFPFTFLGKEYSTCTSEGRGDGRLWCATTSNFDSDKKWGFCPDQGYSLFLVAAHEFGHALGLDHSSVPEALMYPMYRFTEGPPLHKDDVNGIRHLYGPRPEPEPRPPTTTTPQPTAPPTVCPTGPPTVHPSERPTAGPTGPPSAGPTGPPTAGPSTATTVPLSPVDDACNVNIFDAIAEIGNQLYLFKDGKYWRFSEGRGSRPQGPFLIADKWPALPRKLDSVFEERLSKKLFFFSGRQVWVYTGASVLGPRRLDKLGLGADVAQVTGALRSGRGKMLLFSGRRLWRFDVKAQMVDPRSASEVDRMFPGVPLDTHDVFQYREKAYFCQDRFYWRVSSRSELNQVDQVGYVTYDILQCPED
Sequence of Stromelysin-1 (P08254 whole entry): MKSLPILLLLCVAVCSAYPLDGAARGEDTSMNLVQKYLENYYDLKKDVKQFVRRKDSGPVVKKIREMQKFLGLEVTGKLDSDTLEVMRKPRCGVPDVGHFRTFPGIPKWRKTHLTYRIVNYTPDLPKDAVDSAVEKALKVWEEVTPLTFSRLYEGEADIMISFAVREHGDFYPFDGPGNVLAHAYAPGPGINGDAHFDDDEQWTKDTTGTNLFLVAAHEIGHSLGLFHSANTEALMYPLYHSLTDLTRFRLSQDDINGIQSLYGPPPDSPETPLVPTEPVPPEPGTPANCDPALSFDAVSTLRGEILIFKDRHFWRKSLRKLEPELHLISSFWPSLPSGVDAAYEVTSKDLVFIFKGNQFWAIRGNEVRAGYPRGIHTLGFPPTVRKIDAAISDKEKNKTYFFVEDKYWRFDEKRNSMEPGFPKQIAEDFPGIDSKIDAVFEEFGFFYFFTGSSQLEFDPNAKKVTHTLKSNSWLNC
Sequence of Macrophage metalloelastase (P39900 whole entry): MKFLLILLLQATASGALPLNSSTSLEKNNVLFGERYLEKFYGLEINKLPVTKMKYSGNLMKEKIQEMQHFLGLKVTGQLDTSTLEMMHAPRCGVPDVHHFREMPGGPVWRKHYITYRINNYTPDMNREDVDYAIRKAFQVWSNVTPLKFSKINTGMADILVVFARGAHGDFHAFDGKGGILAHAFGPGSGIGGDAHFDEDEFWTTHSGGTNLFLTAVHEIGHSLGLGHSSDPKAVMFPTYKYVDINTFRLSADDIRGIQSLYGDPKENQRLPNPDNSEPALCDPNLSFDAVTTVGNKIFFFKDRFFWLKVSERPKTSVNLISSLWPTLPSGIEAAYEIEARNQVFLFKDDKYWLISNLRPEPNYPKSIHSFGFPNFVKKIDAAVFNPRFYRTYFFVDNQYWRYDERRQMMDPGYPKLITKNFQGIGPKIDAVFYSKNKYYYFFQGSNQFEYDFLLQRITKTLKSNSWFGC

With `Cc1cc(COc2ccc(S(=O)(=O)N3CCN(C(=O)C(C)(C)C)C(C(=O)NO)C3)cc2)c2c(n1)CCCC2` (centres undefined), the IC50 (commonly the midpoint of a concentration-inhibition curve) on Interstitial collagenase was greater than 10000 nM; in data set [1], greater than 10000 nM; in [2], 1300 nM; in data set [5], 930 nM; in data set [7], greater than 10000 nM; against Stromelysin-1, greater than 10000 nM. The figures for the IC50 in [9] and in [12] were 12 nM and greater than 10000 nM, respectively. Moreover, the solubility (commonly the dissolved amount per volume that the medium holds) in data set [3] was 20 µM (≈ 10.9 µg/mL); in data set [13], greater than 55 µM. In data set [4], the hepatocyte CLint at […], 1 µM came to 14 µL/min/1e6 cells. The fraction unbound (commonly free concentration divided by total concentration) at 4 h, 5 µM in [6] amounted to 0.03. Further, in [8], the “Ratio EC50” value amounted to 1. In data set [10], the half-life (in general, how long it takes for the measured level to halve) at 1 µM was greater than 24 h. Also, the remaining at […], 1 µM in [11] amounted to 47%.

As to `CC1(C)SCCN(S(=O)(=O)c2ccc(OCC#CCO)cc2)[C@H]1C(=O)NO`, the IC50 in [14] was 158 nM; in data set [2], 120 nM; in data set [9] it was 4 nM. This molecule displayed a solubility in data set [3] of 90 µM (≈ 37.3 µg/mL).
